Data on 19 molecules can be found in patent publication US20250221408A1, “COMPOSITION” (EARTH CORPORATION, priority 2022, published 2025).

The nature of data set [1]: Decomposition stability of single perfume component in sodium chlorite/benzalkonium chloride preparation, GC-MS, Example 5. The conditions noted are these: for Area change rate (%) / Decomposition stability of additive component: 50° C. for 2 weeks.
Method: Next, the prepared preparation was stored at 50° C. for 2 weeks to obtain an aged product. Further, GC-MS of the initial product (preparation before 2 weeks of storage) and the aged product (preparation after 2 weeks of storage) were measured as described below to observe the change in the content of the perfume component (additive component of the present invention).
Each of the preparations was then measured and analyzed by GC-MS according to the method described above.
Further, the peak area measured by GC-MS of each perfume component in the initial product of the preparation of Example 5 was defined as the “initial product area value”, and the peak area measured by GC-MS of each perfume component in the aged product was defined as the “aged product area value”.
A short description of data set [2]: Decomposition stability of perfume components in sodium chlorite/benzalkonium chloride preparation, GC-MS, Examples 1 to 4 (perfume mixtures).
Method: Next, the prepared preparation was stored at 500° C. for 2 weeks to obtain an aged product. Further, GC-MS of the initial product (preparation before 2 weeks of storage) and the aged product (preparation after 2 weeks of storage) was measured as described below to observe the change in the content of the perfume components (additive component of the present invention).
An ODS cartridge column (Waters Corporation, trade name SepPAK) was conditioned with the first pass through of 10 mL of methanol and the second pass through of 10 mL of water. 100 mL of a sample solution (preparation prepared in the present example, i.e. the composition of the present invention) was passed through the conditioned column and adsorbed on the column. 3 mL of ethanol was further passed through to elute the composition adsorbed on the column. The elusion was analyzed by GC-MS and the area of the perfume component contained therein was measured. This measurement was performed for each of the initial product (preparation before 2 weeks of storage) and the aged product (preparation after 2 weeks of storage), and the area of the perfume component contained in each was compared.
• Column: InertCap Pure-WAX (trade name of the product manufactured by GL Sciences Inc.), 30 m, inner diameter 0.25 mm, film thickness 0.25 μm • Flow rate: Approximately 40 cm/sec • Column temperature: The temperature is raised at 5° C. per minute from 50° C. to 250° C. • Injection port temperature: 200° C. • Detector temperature: 250° C. • Injection amount: 1 μL • Split ratio: 1:10
Each preparation was then measured and analyzed by GC-MS according to the method described above.
“Area change rate (%)” was calculated from the calculated area values, based on the following Equation [1].
Area change rate (%)=initial product area value/aged product area value×100 [1]
Further, the decomposition stability of the additive components was evaluated in three stages, ∘, Δ and × as described below, according to the area change rate (%).
Data set [3] can be described thus: Lewis acidity measurement method (1): reaction rate constant of CoTPP and oxygen in the presence of Lewis acid. In kind it is physicochemical.
Setting [4] is: perfume component 2 ppm in preparation.
Setting [5] is: perfume component 5 ppm in preparation.
[6] abbreviates: CoTPP and oxygen under the presence of Lewis acid, MeCN, room temperature.
The mark [7] stands for this setting: perfume component 1 ppm in preparation.
The mark [8] stands for this setting: Examples 1 to 4, aged products after 2 weeks of storage, GC-MS.
Where [9] appears, read: perfume component 10 ppm in preparation.
Where [10] appears, read: perfume component 50 ppm in preparation.
Where [11] appears, read: perfume component 6 ppm in preparation.
The mark [12] stands for this setting: perfume component 3 ppm in preparation.

Read-outs that look alike come from different tables or passages of the source.

In the case of `CC1CCC(C(C)(C)O)CC1` (centres unmarked) [Dihydroterpineol], the “Area change rate (%)” value in data set [1] (setting [4]) is listed as 99%.

Regarding `C=C(C)C1CC=C(C)C(=O)C1` (centres unmarked) [Carvone], in data set [1] (setting [5]), the “Area change rate (%)” value is 98% and the “Decomposition stability of additive component” value (“Decomposition stability” for short) is listed as “∘ (70% or more)”.

In the case of `CC(C)C12CCC(C)(O)C1C2` (centres unmarked) [Thujanol, reference compound], in data set [2], the “Fate of perfume component in aged product (in words)” value (“Fate of perfume component” for short) is “no peaks were observed”.

Consider `CC(C)C12CCC(C)(CC1)O2` [1,4-cineole], for which the “Area change rate (%)” value in data set [1] (setting [4]) came out at 95%.

In the case of benzalkonium chloride, the kcat in data set [3] (setting [6]) is given as 0.18 M^−2 s^−1.

Take `Cc1ccc(C(C)C)c(O)c1` [Thymol]: in data set [1] (setting [5]), the “Area change rate (%)” value stood at 76% and the “Decomposition stability” value was “∘ (70% or more)”.

On to `CC12CCC(CC1)C(C)(C)O2` [Eucalyptol], for which, in data set [1] (setting [7]), the “Area change rate (%)” value was 99% and the “Decomposition stability” value is recorded as “∘ (70% or more)”.

In the case of `Cc1coc2c1CCC(C)C2` (centres unmarked) [Menthofuran, reference compound], in data set [2] (setting [8]), the “Fate of perfume component” value was “no peaks were observed”.

Regarding `C=CCc1ccc(O)c(OC)c1` [Eugenol], the “Area change rate (%)” value in data set [1] (setting [5]) was found to be 97%.

With `CC1CCC(C(C)C)C(O)C1` (centres unmarked) [Menthol], the “Area change rate (%)” value in data set [1] (setting [5]), in data set [1] (setting [9]) and in data set [1] (setting [10]) was 100% throughout. The “Decomposition stability” value in data set [1] (setting [5]), in data set [1] (setting [9]) and in data set [1] (setting [10]) was “∘ (70% or more)” each time.

`C=CC(C)(O)CCC=C(C)C` (centres unmarked) [Linalool, reference compound]: the “Fate of perfume component” value in data set [1] (Example 5, aged product after 2 weeks at 50° C., GC-MS) is listed as “remarkably decreased”; in data set [2] (setting [8]) it was “no peaks were observed”. Besides, the “Area change rate (%)” value in data set [1] (setting [5]) was 0%.

With `CC(C)[C@@H]1CC[C@@H](C)CC1=O` [Menthone], the entries for the “Area change rate (%)” value in data set [1] (setting [5]) and in data set [1] (setting [9]) were 75% and 80%, respectively. The “Decomposition stability” value in data set [1] (setting [5]) and in data set [1] (setting [9]) was “∘ (70% or more)” each time.

As for `CC1=CC(=O)C(C(C)C)CC1` (centres unmarked) [Piperitone], in data set [1] (setting [11]), the “Area change rate (%)” value turned out to be 89% and the “Decomposition stability” value is on record as “∘ (70% or more)”.

For the molecule `Cc1ccccc1C(C)C` [o-cymene, reference compound], the “Fate of perfume component” value in data set [2] (setting [8]) was “no peaks were observed”.

`OCc1ccccc1` [Benzyl alcohol]: in data set [1] (setting [12]), the “Area change rate (%)” value was found to be 84% and the “Decomposition stability” value is on record as “∘ (70% or more)”.

Regarding `CCCC[N+](CCCC)(CCCC)CCCC.F[P-](F)(F)(F)(F)F` [tetrabutylammonium hexafluorophosphate], in data set [3], the kcat is more than 0.1 M^−2 s^−1.

For the molecule `CC(C)(C)CC(C)(C)c1ccc(OCCOCC[N+](C)(C)Cc2ccccc2)cc1.[Cl-]` [benzetonium chloride, benzethonium chloride], the kcat in data set [3] (setting [6]) came to 0.24 M^−2 s^−1.

Consider `C=C(C)[C@@H]1CC[C@@H](C)C(=O)C1` [Dihydrocarvone], for which the “Area change rate (%)” value in data set [1] (perfume component 4 ppm in preparation) is 91%.

Consider `CC(C)=C1CC[C@@H](C)CC1=O` [Pulegone], for which, in data set [1] (setting [5]), the “Area change rate (%)” value turned out to be 100% and the “Decomposition stability” value is “∘ (70% or more)”.
